“And” between values parts separate entries of the source, which are not always exact repeats. Equal values may be shown once.
Tests used:
[1] = tested on: A431 human epidermoid carcinoma; experiment: In vivo inhibition of tumor growth, A431 model; parameters: species or system athymic nude mice; conditions: 10 mg/kg daily, oral
Source text: Female Nu/Nu˜nuBR athymic nude mice (obtained from Charles River Laboratories), at the age of 5-6 weeks were feed water and an irradiated standard rodent diet ad libitum, and housed in specific pathogen-free conditions, according to the guidelines of the American Association for Accreditation of Lab Animal Care (AALAC).
Mice were implanted subcutaneously in the right hind flank with the various tumor cell suspensions in HBSS containing 10% FBS: A431 human epidermoid carcinoma (4×10^6 cells/mouse), HCT116 human colorectal carcinoma (4×10^6 cells/mouse) and A375 human skin melanoma (2×10^6 cells/mouse). […]
The tumors were allowed to establish growth for 10 to 14 days. Tumor size was measured every 3 days. […]
Tumor measurements and body weights were recorded individually (2×/week) during the treatment period of the experiment. Tumors were measured using a digital caliper. Data was recorded/calculated using Study Director software (StudyLog Systems, Inc.) and graphs were created in GraphPad Prizm.
The volume of each tumor in an animal was calculated according to the formula: (D×d^2)/2, where the diameters were determined from two orthogonal measurements on each tumor. The mean tumor volume was determined by averaging all tumor volumes in each group. The mean body weight was determined by averaging all body weights in each group. […]

[2] = tested on: spontaneous intestinal adenoma formation; experiment: C57BL/6J-APC Min-mouse model of human adenomatous polyposis coli; format: in vivo, C57BL/6J-Apc min mice; conditions: 100 mg/kg orally once-daily; vehicle 47±7, baseline 23±4
Experimental: The ability of Compound 50 to inhibit angiogenesis and tumor growth was tested in a spontaneous tumor model. the pre-cancerous polyp formation in the mouse model of human intestinal tumorigenesis.
Transgenic C57BL/6J-Apc min mice heterozygous for a dominant nonsense Apc mutation are highly susceptible to spontaneous intestinal adenoma formation (homozygous mice are not viable). One hundred percent of these animals will develop polyps by 12 weeks of age. This model is widely used for studying prevention of intestinal adenoma formation and is well described in the literature (Yang K, Edelmann W, Fan K, et. al. A mouse model of human familial adenomatous polyposis. J Exp Zool. 1997 15; 277(3):245-54).
Female C57BL/6J-Apc^Min mice (Jackson Laboratory, MN), 5 weeks of age, were housed (up to 10 mice per group) for a minimum of one week. Animals were then sorted into treatment groups based on body weight such that the mean body weight for the animals in each group was approximately the same. Small cohorts of animals (n=6) were sacrificed at day 1, before treatment to get a baseline number of polyps (mean polyp number at beginning of study). […]
Animals in the treated group (n=10) were dosed daily with Compound 50 at 100 mg/kg orally q.d. for one week. […] The intestine of each mouse was excised, perfused, stained (0.01% Trypan Blue) and polyps were counted under 10× magnification.

[3] = tested on: VEGF-induced angiogenesis; experiment: Mouse Corneal Micropocket Assay; format: in vivo, C57BL/6J mice
Source text: This method has been described in detail (see Kenyon B, Voest E E, Chen C C, Flynn E, Folkman J and D'Amato R J, A model of angiogenesis in the mouse cornea, Invest. Opthalmol. Vis. Sci., 1996, 37:1625-1632; and, LaMontagne K, Littlewood-E A, Schnell C, O'Reilly T, Wyder L, Sanchez T, Probst B, Butler J, Wood A, Liau G, Billy E, Theuer A, Hla T and Wood J, Antagonism of sphingosine-1-phosphate receptors by FTY720 inhibits angiogenesis and tumor vascularization, Cancer Res., 2006, 66:221-31) and is an in vivo functional assay that provides an important link between biochemical and cellular inhibition (i.e., VEGFR-2 autophosphorylation and VEGF-dependent migration) and functional biological end points (i.e., VEGF-induced angiogenesis in vivo).
Pellets containing the slow-release polymer Hydron® and sucralfate with 180 ng rHuVEGF165 were implanted into the cornea of female C57BL/6J mice. Daily oral treatment with either Compound 50 (10 mg/kg or 100 mg/kg) or vehicle (0.5% methylcellulose) was started 24 hours later. […] After sacrifice on day 6, the vascular response was quantified using a linear reticule through the slit lamp. Inhibition was determined by the formula: Inhibition=[(0.2)(π)(new blood vessel length)(clock hours of neovessels)]
The circumferential zone was measured as clock hours with a 360° reticule (where 30° of arc equals 1 clock hour). […]

CCNC(=O)Nc1ccc(Oc2ncnc(N)c2/C=N/OC)cc1Cl [Cpd 50, 1-{4-[6-amino-5-(methoxyimino-methyl)-pyrimidin-4-yloxy]-2-chloro-phenyl}-3-ethyl-urea]
inhibition of tumor growth [1]: < 50% | polyp counts [2]: 27±7 | % Inhibition of blood vessel growth compared to the vehicle group ([3]; 10 mg/Kg daily oral): 15% and 15 ± 2% | % Inhibition of blood vessel growth compared to the vehicle group ([3]; 100 mg/Kg daily oral): 83% and 83 ± 6%

From patent US8013153B2, “Substituted pyrimidine kinase inhibitors” (Janssen Pharmaceutica, N.V., priority 2006, dated 2011)
